Assay results as given in patent publication US6201006A, “Aromatic amidine derivatives useful as selective thrombin inhibitors” (C & C Research Laboratories, priority 1996, dated 2001).

Target: T1, human thrombin (Homo sapiens, UniProt P00734)
T1 construct: purchased Sigma T-6759
Experiment: Inhibitory activity for thrombin (chromogenic substrate hydrolysis, 405 nm)
Assay type: biochemical
Settings: for IC50: human thrombin, 20 min, pH 8.0, N-benzoyl-Phe-Val-Arg-p-nitroanilide; for Selectivity (trypsin/thrombin): IC50 for trypsin divided by IC50 for thrombin
Description: 20 μl of each compound of the present invention was dissolved in 50% methanol in various concentrations and then added to each well of a microplate, to each of which 160 μl of the reaction medium containing 125 mM NaCl, 50 mM Tris-HCl (pH 8.0) and 2 mM synthetic substrate (N-benzoyl-Phe-Val-Arg-p-nitroanilide, Sigma B-7632) were added. 20 μl of human thrombin solution (5 units/ml, Sigma T-6759, manufactured by Sigma Co.) containing 0.1% bovine serum albumin was added to each well to initiate the enzymatic reaction. After 20 minutes, the hydrolysis of substrate was determined by measuring the absorbance at 405 nm. […] The selectivity index was calculated by dividing the IC50 value for trypsin by the IC50 value for thrombin. The thrombin inhibitory activity and the trypsin inhibitory activity for the compound of the present invention are shown in the following Table 2.

| SMILES | IC50 | Selectivity (trypsin/thrombin) |
| --- | --- | --- |
| Cn1c(CC[C@@H]2CCCN2Cc2c(C(N)=O)sc3ccccc23)cc2ccc(C(=N)N)cc21 [Compound 9] | 33.9 nM |  |
| CCn1c(CC[C@@H]2CCCN2C(=O)Cc2ccccc2C(=O)O)cc2ccc(C(=N)N)cc21 [Compound 24, 2-[2-[(S)-2-[2-(6-amidino-1-ethylindol-2-yl)ethyl]pyrrolidinyl]-2-oxoethyl]benzoic acid] | 8.45 nM | 83.6 |
| CCn1c(CC[C@@H]2CCCN2C(=O)[C@H](NS(C)(=O)=O)c2ccccc2)cc2ccc(C(=N)N)cc21 [Compound 37, 1ethyl-2-[2-[(S)-1-((R)-2-methylsulfonylamino-2-phenylacetyl)pyrrolidin-2-yl]ethyl]indole-6-carboxamidine] | 5.4 nM |  |
| CCn1c(CC[C@@H]2CCCN2C(=O)CC2CCCC2)cc2ccc(C(=N)N)cc21 [Compound 43, 1ethyl-2-[2-[(S)-1-(2-cyclopentylacetyl)pyrrolidin-2-yl]ethyl]indole-6-carboxamidine] | 9.96 nM | 40.3 |
| CCn1c(CC[C@@H]2CCCN2C(=O)CC2CCCCC2)cc2ccc(C(=N)N)cc21 [Compound 46, 1ethyl-2-[2-[(S)-1-(2-cyclohexylacetyl)pyrrolidin-2-yl]ethyl]indole-6-carboxamidine] | 28.9 nM |  |
| CCOC(=O)CN(CC(=O)N1CCC[C@H]1CCc1cc2ccc(C(=N)N)cc2n1CC)C1CC1 [Compound 62, ethyl 2-[[2-[(S)-2-[2-(6-amidino-1-ethylindol-2-yl)ethyl]pyrrolidinyl]-2-oxoethyl]cyclopropylamino]acetate] | 11.7 nM | 49.7 |
| CCOC(=O)CN(C1CC1)C(C)C(=O)N1CCC[C@H]1CCc1cc2ccc(C(=N)N)cc2n1CC (stereo partly drawn) [Compound 64, ethyl 2-[[2-[(S)-2-[2-(6-amidino-1-ethylindol-2-yl)ethyl]pyrrolidinyl]-1-methyl-2-oxoethyl]cyclo-propylamino]acetate] | 15.2 nM | 22.9 |
| CCn1c(CC[C@@H]2CCCN2C(=O)C(C)N(CC(=O)O)C2CC2)cc2ccc(C(=N)N)cc21 (stereo partly drawn) [Compound 65, 2-[[2-[(S)-2-[2-(6-amidino-1-ethylindol-2-yl)ethyl]pyrrolidinyl]-1-methyl-2-oxoethyl]cyclopylamino]acetic acid] | 22.1 nM |  |
| CCn1c(CC[C@@H]2CCCN2C(=O)C(CC(=O)O)NC2CC2)cc2ccc(C(=N)N)cc21 (stereo partly drawn) [Compound 73, 4-[(S)-2-[2-(6-amidino-1-ethylindol-2-yl)ethyl]pyrrolidinyl]-3-cyclopropylamino-4-oxobutanoic acid] | 33.2 nM |  |

The remaining compounds from weak to strong by IC50, led by results:

| IC50 | Selectivity (trypsin/thrombin) | SMILES |
| --- | --- | --- |
| 30.9 nM |  | CCn1c(CC[C@@H]2CCCN2C(=O)[C@H]2CCCN2)cc2ccc(C(=N)N)cc21 [Compound 83] |
| 9.4 nM | 13.6 | CCOC(=O)CC(NC1CC1)C(=O)N1CCC[C@H]1CCc1cc2ccc(C(=N)N)cc2n1CC (stereo partly drawn) [Compound 72, ethyl 4-[(S)-2-[2-(6-amidino-1-ethylindol-2-yl)ethyl]pyrrolidinyl]-3-cyclopropylamino-4-oxobutanoate] |
| 7.95 nM |  | CCn1c(CC[C@@H]2CCCN2C(=O)[C@H](NCC(=O)O)c2ccccc2)cc2ccc(C(=N)N)cc21 [Compound 40, 2-[[(R)-2-[2-(S)-2-[2-(6-amidino-1-ethylindol-2-yl)ethyl]pyrrolidinyl]-2-oxo-1-phenylethyl]amino]acetic acid] |
| 7.73 nM |  | CCn1c(CC[C@@H]2CCCN2C(=O)CNC2CC2)cc2ccc(C(=N)N)cc21 [Compound 57, 1-ethyl-2-[2-[(S)-1-(2-cyclopropylaminoacetyl)pyrrolidin-2-yl]ethyl]indole-6-carboxamidine] |
| 6.91 nM |  | CCn1c(CC[C@@H]2CCCN2C(=O)[C@H](NCC(N)=O)c2ccccc2)cc2ccc(C(=N)N)cc21 [Compound 39, 1ethyl-2-[2-[(S)-1-[(R)-2-(carbamoylmethylamino)-2-phenylacetyl]pyrrolidin-2-yl]ethyl]indole-6-carboxamidine] |
